Assay results as given in US10023593B2, “ALK kinase inhibitor, and preparation method and uses thereof” (BEIJING PEARL BIOTECHNOLOGY LIMITED LIABILITY COMPANY, priority 2014, dated 2018).

Legend:
L1196M mutant ALK kinase = target: T1, L1196M mutant ALK kinase (Homo sapiens, UniProt Q9UM73, L1196M); assay: HTRF KinEASE-TK assay, inhibitory activity on L1196M mutant ALK kinase; format: biochemical; conditions: L1196M mutant ALK 1 ng/μl, substrate 1 μM, ATP 5 μM, 30° C. 35 minutes, read-out: Inhibition on ALK kinases (L1196M mutant), IC50
T1 construct: purchased Sino-US Crown Bioscience, Inc. batch number ALKm_20110923
T1 sequence (Q9UM73 19-1620 L1196M): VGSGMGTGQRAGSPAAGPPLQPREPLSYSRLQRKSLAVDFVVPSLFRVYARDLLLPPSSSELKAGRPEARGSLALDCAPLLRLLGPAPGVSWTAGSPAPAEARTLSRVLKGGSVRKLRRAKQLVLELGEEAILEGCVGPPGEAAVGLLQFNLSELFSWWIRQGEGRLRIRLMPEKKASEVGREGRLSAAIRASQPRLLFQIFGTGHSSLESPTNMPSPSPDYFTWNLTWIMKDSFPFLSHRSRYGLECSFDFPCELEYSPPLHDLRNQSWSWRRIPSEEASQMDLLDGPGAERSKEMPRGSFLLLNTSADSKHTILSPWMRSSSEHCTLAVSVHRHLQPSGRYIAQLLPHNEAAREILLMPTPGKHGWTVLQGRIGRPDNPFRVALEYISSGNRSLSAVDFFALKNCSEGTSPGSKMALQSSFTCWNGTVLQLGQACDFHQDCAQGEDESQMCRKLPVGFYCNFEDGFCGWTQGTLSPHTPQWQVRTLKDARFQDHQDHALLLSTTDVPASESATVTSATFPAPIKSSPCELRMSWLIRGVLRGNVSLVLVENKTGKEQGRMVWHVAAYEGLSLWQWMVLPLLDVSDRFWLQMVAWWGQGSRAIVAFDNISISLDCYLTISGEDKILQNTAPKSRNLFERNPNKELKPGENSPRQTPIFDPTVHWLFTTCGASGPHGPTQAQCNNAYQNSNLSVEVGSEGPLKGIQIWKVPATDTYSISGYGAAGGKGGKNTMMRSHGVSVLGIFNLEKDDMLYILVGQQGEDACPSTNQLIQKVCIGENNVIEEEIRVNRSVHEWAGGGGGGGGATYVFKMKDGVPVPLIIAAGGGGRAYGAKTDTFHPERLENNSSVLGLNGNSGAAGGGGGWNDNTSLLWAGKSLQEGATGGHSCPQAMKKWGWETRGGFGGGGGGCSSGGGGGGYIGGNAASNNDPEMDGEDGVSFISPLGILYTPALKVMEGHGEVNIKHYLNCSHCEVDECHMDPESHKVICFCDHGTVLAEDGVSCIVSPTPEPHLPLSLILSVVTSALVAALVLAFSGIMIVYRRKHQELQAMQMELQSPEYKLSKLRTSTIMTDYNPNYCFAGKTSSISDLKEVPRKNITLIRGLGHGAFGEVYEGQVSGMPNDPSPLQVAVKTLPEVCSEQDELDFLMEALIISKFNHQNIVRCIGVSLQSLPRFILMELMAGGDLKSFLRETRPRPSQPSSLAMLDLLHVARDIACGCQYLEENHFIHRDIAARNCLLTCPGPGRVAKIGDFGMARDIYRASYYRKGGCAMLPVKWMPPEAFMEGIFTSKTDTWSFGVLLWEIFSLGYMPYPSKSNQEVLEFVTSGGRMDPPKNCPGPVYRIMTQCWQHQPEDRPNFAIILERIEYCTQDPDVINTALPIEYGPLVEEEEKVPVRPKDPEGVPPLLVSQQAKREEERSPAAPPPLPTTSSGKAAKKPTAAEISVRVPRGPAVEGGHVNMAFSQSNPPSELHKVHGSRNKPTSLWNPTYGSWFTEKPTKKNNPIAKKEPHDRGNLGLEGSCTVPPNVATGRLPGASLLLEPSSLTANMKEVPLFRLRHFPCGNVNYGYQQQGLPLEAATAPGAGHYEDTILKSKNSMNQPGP
Outline: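 HTRF TK assay: mutant kinase 1 ng/μl, substrate 1 μM, ATP 5 μM, 5 mM MgCl2, 1 mM DTT, 1% DMSO, 35 min at 30 °C. 665/615 ratio read; inhibition normalised to no-compound and 10.4 μM LDK-378 controls; IC50 from curve fit.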

NCI-H2228 cell line = assay: CellTiter-Glo cell proliferation inhibition on NCI-H2228 cell line; format: cell-based; conditions: Homo sapiens, NCI-H2228, 96 h, NCI-H2228 cells, 5000 cells/well, 4 days drug treatment
Outline: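 NCI-H2228 cells, 5000/well in RPMI-1640 + 10% FBS, treated with compounds 2 h after seeding (0.5% DMSO final) for 4 days at 37° C. Viability by CellTiter-Glo luminescence; inhibition relative to DMSO control, IC50 from curve fit.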

cytochrome P450 2C9 = cytochrome P450 2C9 (Homo sapiens, UniProt P11712); assay: Inhibitory activity on cytochrome P450 2C9; format: in vitro ADME; conditions: no significant inhibition
Sequence of cytochrome P450 2C9 (P11712 whole entry): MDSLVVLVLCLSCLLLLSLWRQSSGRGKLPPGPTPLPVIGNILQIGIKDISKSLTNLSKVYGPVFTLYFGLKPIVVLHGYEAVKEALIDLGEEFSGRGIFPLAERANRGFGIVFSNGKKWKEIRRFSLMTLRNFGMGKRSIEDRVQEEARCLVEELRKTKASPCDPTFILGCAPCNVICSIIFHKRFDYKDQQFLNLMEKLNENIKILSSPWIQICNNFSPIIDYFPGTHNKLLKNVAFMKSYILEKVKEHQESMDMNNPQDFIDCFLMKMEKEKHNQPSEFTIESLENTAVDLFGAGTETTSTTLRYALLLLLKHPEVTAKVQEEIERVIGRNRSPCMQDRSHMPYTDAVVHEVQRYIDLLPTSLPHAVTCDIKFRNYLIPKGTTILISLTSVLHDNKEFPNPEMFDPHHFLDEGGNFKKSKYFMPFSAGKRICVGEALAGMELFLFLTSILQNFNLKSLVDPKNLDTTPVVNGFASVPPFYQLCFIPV

cytochrome P450 3A4 = cytochrome P450 3A4 (Homo sapiens, UniProt P08684); assay: Inhibitory activity on cytochrome P450 3A4; format: in vitro ADME; conditions: no significant inhibition
Sequence of cytochrome P450 3A4 (P08684 whole entry): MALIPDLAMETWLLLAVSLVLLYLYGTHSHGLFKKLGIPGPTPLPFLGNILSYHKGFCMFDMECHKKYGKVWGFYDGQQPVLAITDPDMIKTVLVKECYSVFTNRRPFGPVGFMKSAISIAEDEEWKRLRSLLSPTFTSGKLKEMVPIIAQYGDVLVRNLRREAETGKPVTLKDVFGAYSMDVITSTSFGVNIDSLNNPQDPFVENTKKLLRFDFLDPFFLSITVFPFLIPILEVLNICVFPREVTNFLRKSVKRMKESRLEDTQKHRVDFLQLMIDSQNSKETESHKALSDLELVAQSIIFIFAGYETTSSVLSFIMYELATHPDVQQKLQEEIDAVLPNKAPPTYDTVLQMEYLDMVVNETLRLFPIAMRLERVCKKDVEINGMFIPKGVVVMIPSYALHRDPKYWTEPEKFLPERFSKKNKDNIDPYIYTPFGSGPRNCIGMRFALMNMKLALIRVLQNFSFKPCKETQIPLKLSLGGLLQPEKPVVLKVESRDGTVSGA

cytochrome P450 2D6 = cytochrome P450 2D6 (Homo sapiens, UniProt P10635); assay: Inhibitory activity on cytochrome P450 2D6; format: in vitro ADME; conditions: no significant inhibition
Sequence of cytochrome P450 2D6 (P10635 whole entry): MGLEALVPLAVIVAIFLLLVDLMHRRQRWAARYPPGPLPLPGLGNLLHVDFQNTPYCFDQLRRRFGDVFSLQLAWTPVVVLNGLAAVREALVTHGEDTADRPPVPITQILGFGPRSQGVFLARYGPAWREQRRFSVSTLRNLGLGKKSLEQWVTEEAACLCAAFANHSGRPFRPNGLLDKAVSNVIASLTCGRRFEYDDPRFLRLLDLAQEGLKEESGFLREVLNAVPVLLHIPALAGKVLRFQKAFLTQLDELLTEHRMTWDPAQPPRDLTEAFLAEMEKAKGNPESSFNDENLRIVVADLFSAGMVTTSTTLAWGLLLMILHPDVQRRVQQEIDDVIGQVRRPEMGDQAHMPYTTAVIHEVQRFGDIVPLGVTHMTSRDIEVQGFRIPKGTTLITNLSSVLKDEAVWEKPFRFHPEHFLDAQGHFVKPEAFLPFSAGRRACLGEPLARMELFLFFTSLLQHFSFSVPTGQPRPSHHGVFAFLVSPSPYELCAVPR

IC50 (L1196M mutant ALK kinase) [µM]	IC50 (NCI-H2228 cell line) [µM]	IC50 (cytochrome P450 2C9) [µM]	IC50 (cytochrome P450 3A4) [µM]	IC50 (cytochrome P450 2D6) [µM]	SMILES
0.008	0.184				CC(C)Oc1cc(C2CCNCC2)ccc1Nc1ncc(Cl)c(Nc2cn(C)nc2S(=O)(=O)C(C)C)n1 [Final product 1, 5-chloro-N^2-[2-isopropoxy-4-(piperidin-4-yl)phenyl]-N^4-(3-isopropylsulfonyl-1-methyl-1H-pyrazol-4-yl)pyrimidin-2,4-diamine]
0.016	0.198				Cc1cc(Nc2ncc(Cl)c(Nc3cn(C)nc3S(=O)(=O)C(C)C)n2)c(OC(C)C)cc1C1CCNCC1 [Final product 2]
0.005	0.364				Cc1cc(Nc2ncc(Cl)c(Nc3cn(C)nc3S(=O)(=O)C(C)C)n2)c(OC(C)C)cc1C1CCNC1 (stereo not shown) [Final product 3]
0.004	0.133				Cc1cc(Nc2ncc(Cl)c(Nc3cn(C)nc3S(=O)(=O)C(C)C)n2)c(OC2CC2)cc1C1CCN(C)C1 (stereo not shown) [Final product 53]
0.005	0.018				Cc1cc(Nc2ncc(Cl)c(Nc3cn(C)nc3S(=O)(=O)C(C)C)n2)c(OC2CC2)cc1C1CN(C)C1 [Final product 54]
0.008	0.181				Cc1cc(Nc2ncc(Cl)c(Nc3cn(C)nc3S(=O)(=O)CC(C)C)n2)c(OC2CC2)cc1C1CN(C)C1 [Final product 55]
0.011	0.142				Cc1cc(Nc2ncc(Cl)c(Nc3cn(C4CC4)nc3S(=O)(=O)C(C)C)n2)c(OC2CC2)cc1C1CCN(C)CC1 [Final product 56]
0.011	0.108	> 10	> 10	> 10	Cc1cc(Nc2ncc(Cl)c(Nc3cn(C)nc3S(=O)(=O)CC(C)C)n2)c(OC2CC2)cc1C1CCN(C)CC1 [Final product 57]
0.006	0.055				COC1CN(C)CCC1c1cc(OC2CC2)c(Nc2ncc(Cl)c(Nc3cn(C)nc3S(=O)(=O)C(C)C)n2)cc1C (stereo not shown) [Final product 58]
0.004	0.025	> 10	> 10	> 10	COCC1CC(c2cc(OC3CC3)c(Nc3ncc(Cl)c(Nc4cn(C)nc4S(=O)(=O)C(C)C)n3)cc2C)CCN1C (stereo not shown) [Final product 77]
0.008	0.062				COCC1CC(c2cc(OC3CC3)c(Nc3ncc(Cl)c(Nc4cn(C)nc4S(=O)(=O)CC(C)C)n3)cc2C)CCN1C (stereo not shown) [Final product 79]
0.025	0.19				Cc1cc(Nc2ncc(Cl)c(Nc3cn(C4CC4)nc3S(=O)(=O)C(C)C)n2)c(OC(C)C)cc1C1CCN(C)CC1 [Final product 81]
0.007	0.043	> 10	> 10	> 10	COCCN1CCC(c2cc(OC3CC3)c(Nc3ncc(Cl)c(Nc4cn(C)nc4S(=O)(=O)C(C)C)n3)cc2C)CC1 [Final product 82]
0.01	0.113				Cc1cc(Nc2ncc(Cl)c(Nc3cn(C)nc3S(=O)(=O)C(C)C)n2)c(OC2CC2)cc1C1CCN(C)CC1F (stereo not shown) [Final product 87]
0.015	0.072				Cc1cc(Nc2ncc(Cl)c(Nc3cn(C)nc3S(=O)(=O)C(C)C)n2)c(OC2CC2)cc1C1CCN(C)CC1(F)F (stereo not shown) [Final product 88]
0.004	0.045				Cc1cc(Nc2ncc(Cl)c(Nc3cn(C)nc3S(=O)(=O)C(C)C)n2)c(OC2CC2)cc1C1CCN(C)CC1C (stereo not shown) [Final product 90]
0.02	0.151	> 10	> 10	> 10	Cc1cc(Nc2ncc(Cl)c(Nc3cn(C)nc3S(=O)(=O)C(C)C)n2)c(OC2CC2)cc1C1CCC(NS(C)(=O)=O)CC1 (stereo not shown) [Final product 205, N-(4-(4-(5-chloro-4-(3-(isopropylsulfonyl)-1-methyl-1H-pyrazol-4-amine)pyrimidin-2-amine)-5-cyclopropoxy-2-methylphenyl)cyclohexyl)methanesulfonamide]
